Source: paper PMC10745882, “Investigation of Drug-Interaction Potential for Arthritis Dietary Supplements: Chondroitin Sulfate, Glucosamine, and Methylsulfonylmethane” (Molecules, 2023)
Read-outs that look alike come from different tables or passages of the source.

What was measured:
CYPs [1] = settings: drugs used for OA; ref as in Refs of Table 4, 17-36; cited from earlier work
[2] = parameters: method as in PMID 16942821, PMID 37489348, PMID 31331587; settings: typical doses as monotherapy; cited from earlier work
[3] = tested on: seven CYP isozymes (CYP1A2, CYP2A6, CYP2B6, CYP2C9, CYP2C19, CYP2D6, CYP3A4); test: CYP inhibition assay in human liver microsomes, statements on all tested isozymes; type: in vitro ADME
Description: (§1) For the experimental method, the reference method was used. Briefly, incubation mixtures were composed of 0.5 mg/mL human liver microsomes; varying concentrations of CS in DW (0.1, 0.3, 1, 3, 10, 30, 100, and 200 µM) or MSM in DW (0.1, 0.3, 1, 3, 10, 30, 100, 300, and 1000 µM) or GCS in DMSO (0.1, 0.3, 1, 3, 10, 30, 100, 300, and 1000 µM); a substrate mixture in DMSO (40 µM phenacetin for CYP1A2; 2.5 µM coumarin for CYP2A6; 80 µM bupropion for CYP2B6; 10 µM diclofenac for CYP2C9; 80 µM [±]-mephenytoin for CYP2C19; 5 µM dextromethorphan for CYP2D6; 2.5 µM midazolam and 30 µM testosterone for CYP3A4); and an NADPH generating system (NGS; 0.1 M glucose-6-phosphate, 10 mg/mL β-NADP^+, and 1 U/mL glucose-6-phosphate dehydrogenase) in a total volume of 200 µL potassium phosphate buffer (0.1 M, pH 7.4). The reaction mixture, excluding NGS, underwent pre-incubation at 37 °C for 5 min, followed by further incubation with NGS for 30 min in a water bath. Well-established selective CYP inhibitors were employed as positive controls (40 µM ketoconazole for CYP3A4, 50 µM furafyllin for CYP1A2, 10 µM quinidine for CYP2D6, 125 µM ticlopidine for CYP2C19 and CYP2B6, 10 µM 8-methoxsalen for CYP2A6, and 10 µM sulfaphenazole for CYP2C9). Post incubation, the reaction was halted by adding 50 µL ice-cold 1% formic acid acetonitrile. After centrifugation at 13,200 rpm for 5 min, the supernatant was collected from the sample and subjected to analysis via an LC-MS/MS system. All experiments were performed in triplicate.
For the experimental method, the reference method was used. The LC-MS/MS system utilized in this study consisted of an Agilent 1260 binary pump HPLC system coupled with the Agilent 6460 Triple Quadrupole mass spectrometer (Agilent Technologies, Santa Clara, CA, USA), featuring an electrospray ionization source. Chromatographic separation was achieved using a Fortis C8 column (2.1 × 100 mm, 5.0 µm; Fortis Technologies Ltd., Neston, UK). The HPLC mobile phases comprised (A) 0.1% formic acid and (B) 0.1% formic acid in 90% acetonitrile. […]

CYP3A4(T) = molecular target: T1, CYP3A4(T) (Homo sapiens, UniProt P08684); test: CYP inhibition assay in human liver microsomes (LC-MS/MS cocktail), testosterone to 6-β-OH-Testosterone; type: in vitro ADME
T1 construct: Pooled human liver microsomes were purchased from BD Gentest; tissue BD Gentest; host or cells: pooled human liver microsomes
Description: as §1
For the experimental method, the reference method was used. The LC-MS/MS system utilized in this study consisted of an Agilent 1260 binary pump HPLC system coupled with the Agilent 6460 Triple Quadrupole mass spectrometer (Agilent Technologies, Santa Clara, CA, USA), featuring an electrospray ionization source. Chromatographic separation was achieved using a Fortis C8 column (2.1 × 100 mm, 5.0 µm; Fortis Technologies Ltd., Neston, UK). The HPLC mobile phases comprised (A) 0.1% formic acid and (B) 0.1% formic acid in 90% acetonitrile. A gradient elution method was employed with an initial solvent B concentration of 15% and a flow rate of 0.25 mL/min. […] The total run time was 11.0 min, and the injection volume was 5 µL. Mass detection was conducted in the positive ion mode using multiple reaction monitoring (MRM). Specific MRM transitions for each analyte are detailed in Table S4.

CYPs [4] = tested on: CYPs; parameters: method as in PMID 33096940; settings: in vivo mice, after the administration of MSM; cited from earlier work
[5] = parameters: method as in doi:10.4172/2155-9600.1000748, PMID 16168682, PMID 19912983; settings: cited from earlier work
CYP3A4(M) = molecular target: T2, CYP3A4(M) (Homo sapiens, UniProt P08684); test: CYP inhibition assay in human liver microsomes (LC-MS/MS cocktail), midazolam to 1-OH-midazolam; type: in vitro ADME
T2 construct: Pooled human liver microsomes were purchased from BD Gentest; tissue BD Gentest; host or cells: pooled human liver microsomes
Description: For the experimental method, the reference method was used. […] The reaction mixture, excluding NGS, underwent pre-incubation at 37 °C for 5 min, followed by further incubation with NGS for 30 min in a water bath. […] Post incubation, the reaction was halted by adding 50 µL ice-cold 1% formic acid acetonitrile. After centrifugation at 13,200 rpm for 5 min, the supernatant was collected from the sample and subjected to analysis via an LC-MS/MS system. All experiments were performed in triplicate.
For the experimental method, the reference method was used. […] The HPLC mobile phases comprised (A) 0.1% formic acid and (B) 0.1% formic acid in 90% acetonitrile. […] The total run time was 11.0 min, and the injection volume was 5 µL. Mass detection was conducted in the positive ion mode using multiple reaction monitoring (MRM). Specific MRM transitions for each analyte are detailed in Table S4.

CYP2C9 = tested on: CYP2C9; parameters: method as in PMID 34821124, PMID 29488228; settings: previous studies; cited from earlier work
[6] = interaction case, co-administration of CS and GCS with warfarin; cited from earlier work
CYP2D6 = molecular target: T3, CYP2D6 (Homo sapiens, UniProt P10635); parameters: method as in PMID 34821124, PMID 29488228; settings: previous studies; cited from earlier work
T3 construct: Pooled human liver microsomes were purchased from BD Gentest; tissue BD Gentest; host or cells: pooled human liver microsomes
T3 sequence (P10635 whole entry): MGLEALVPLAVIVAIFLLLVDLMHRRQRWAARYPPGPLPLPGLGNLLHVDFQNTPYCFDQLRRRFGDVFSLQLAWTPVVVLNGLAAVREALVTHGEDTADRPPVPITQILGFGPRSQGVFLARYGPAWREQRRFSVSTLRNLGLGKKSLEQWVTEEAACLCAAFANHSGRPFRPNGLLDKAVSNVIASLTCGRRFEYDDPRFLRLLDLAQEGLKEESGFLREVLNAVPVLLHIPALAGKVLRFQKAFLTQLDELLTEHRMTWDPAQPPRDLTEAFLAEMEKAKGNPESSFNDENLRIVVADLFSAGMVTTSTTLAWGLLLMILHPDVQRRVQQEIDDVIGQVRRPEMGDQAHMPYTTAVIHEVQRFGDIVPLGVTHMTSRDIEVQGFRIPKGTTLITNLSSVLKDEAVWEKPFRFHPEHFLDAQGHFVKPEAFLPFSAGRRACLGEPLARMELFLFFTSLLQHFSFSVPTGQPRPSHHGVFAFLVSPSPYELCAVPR

T2 sequence (P08684 whole entry): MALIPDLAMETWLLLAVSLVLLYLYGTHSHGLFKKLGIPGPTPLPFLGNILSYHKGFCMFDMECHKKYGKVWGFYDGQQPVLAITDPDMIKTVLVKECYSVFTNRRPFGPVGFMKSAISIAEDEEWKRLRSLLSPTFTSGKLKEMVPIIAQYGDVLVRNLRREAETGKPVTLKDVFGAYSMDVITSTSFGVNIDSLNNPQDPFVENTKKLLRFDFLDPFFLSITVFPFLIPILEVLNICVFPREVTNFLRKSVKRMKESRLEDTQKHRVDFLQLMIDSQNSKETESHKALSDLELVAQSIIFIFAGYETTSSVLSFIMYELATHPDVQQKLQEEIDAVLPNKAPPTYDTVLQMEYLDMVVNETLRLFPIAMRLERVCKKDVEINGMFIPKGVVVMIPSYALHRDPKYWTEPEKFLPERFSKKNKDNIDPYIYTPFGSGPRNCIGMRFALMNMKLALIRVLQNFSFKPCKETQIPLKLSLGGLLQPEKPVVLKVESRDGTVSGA
T1 sequence (P08684 whole entry): as above

CC(=O)Nc1ccc(O)cc1 [Acetaminophen]
Metabolism-Associated CYPs (CYPs [1]): CYP3A4 (major), CYP2El, CYP1A2, CYP2D6

Cc1ccc(-c2cc(C(F)(F)F)nn2-c2ccc(S(N)(=O)=O)cc2)cc1 [Celecoxib]
Metabolism-Associated CYPs (CYPs [1]): CYP2C9 (major), CYP3A4

O=C(O)Cc1ccccc1Nc1c(Cl)cccc1Cl [Diclofenac]
Metabolism-Associated CYPs (CYPs [1]): CYP2C8, CYP2C9 (major), CYP2C18, CYP2C19, CYP2B6, CYP3A4

CC(C)Cc1ccc(C(C)C(=O)O)cc1 (centres unmarked) [Ibuprofen]
Metabolism-Associated CYPs (CYPs [1]): CYP2C8 (major) CYP2C9 (major), CYP2C19, CYP3A4

CS(C)(=O)=O [MSM, methylsulfonylmethane]
adverse effects in clinical trials [2]: do not exhibit significant adverse effects | inhibitory effects on CYP1A2, CYP2A6, CYP2B6, CYP2C9, CYP2C19, CYP2D6, and CYP3A4 [3]: no inhibitory effects | Remaining Activities (% of Control, n = 3) (CYP3A4(T); test substance 0.3 μM): 95.3 ± 2.9 % of Control | Remaining Activities (% of Control, n = 3) (CYP3A4(T); test substance 1 μM): 98.5 ± 4.2 % of Control | Remaining Activities (% of Control, n = 3) (CYP3A4(T); test substance 3 μM): 95.1 ± 3.5 % of Control | Remaining Activities (% of Control, n = 3) (CYP3A4(T); test substance 10 μM): 98.0 ± 2.4 % of Control | Remaining Activities (% of Control, n = 3) (CYP3A4(T); test substance 30 μM): 95.3 ± 1.7 % of Control | Remaining Activities (% of Control, n = 3) (CYP3A4(T); test substance 100 μM): 90.8 ± 3.4 % of Control | Remaining Activities (% of Control, n = 3) (CYP3A4(T); test substance 300 μM): 95.9 ± 4.2 % of Control | Remaining Activities (% of Control, n = 3) (CYP3A4(T); test substance 1000 μM): 95.2 ± 0.5 % of Control | inhibition or induction effects on CYPs (intrahepatic gene expressions) (CYPs [4]): no significant inhibition or induction effects | maximum plasma concentrations ([5]; common daily dose 2000 mg/day): ~1100 µM | Remaining Activities (% of Control, n = 3) (CYP3A4(M); test substance 0.3 μM): 93.2 ± 13.2 % of Control | Remaining Activities (% of Control, n = 3) (CYP3A4(M); test substance 1 μM): 97.8 ± 4.3 % of Control | Remaining Activities (% of Control, n = 3) (CYP3A4(M); test substance 3 μM): 96.2 ± 4.3 % of Control | Remaining Activities (% of Control, n = 3) (CYP3A4(M); test substance 10 μM): 96.8 ± 4.2 % of Control | Remaining Activities (% of Control, n = 3) (CYP3A4(M); test substance 30 μM): 96.9 ± 7.2 % of Control | Remaining Activities (% of Control, n = 3) (CYP3A4(M); test substance 100 μM): 96.7 ± 6.2 % of Control | Remaining Activities (% of Control, n = 3) (CYP3A4(M); test substance 300 μM): 97.9 ± 4.4 % of Control | Remaining Activities (% of Control, n = 3) (CYP3A4(M); test substance 1000 μM): 99.7 ± 4.1 % of Control

Cc1cnc(NC(=O)C2=C(O)c3ccccc3S(=O)(=O)N2C)s1 [Meloxicam]
Metabolism-Associated CYPs (CYPs [1]): CYP2C9 (major), CYP3A4

CCOC(=O)C1(c2ccccc2)CCN(C)CC1 [Pethidine]
Metabolism-Associated CYPs (CYPs [1]): CYP2B6 (major), CYP3A4 (major), CYP2C19

COc1cccc(C2(O)CCCCC2CN(C)C)c1 (centres unmarked) [Tramadol]
Metabolism-Associated CYPs (CYPs [1]): CYP2D6 (major), CYP3A4, CYP2B6

Chondroitin sulfate [CS]
adverse effects in clinical trials [2]: do not exhibit significant adverse effects | inhibitory effects on CYP2C9 (CYP2C9): no inhibitory effects | inhibitory effects on CYP1A2, CYP2A6, CYP2B6, CYP2C9, CYP2C19, CYP2D6, and CYP3A4 [3]: no inhibitory effects | INR on co-administration with warfarin [6]: elevated INR | inhibitory effects on CYP2D6 (CYP2D6): no inhibitory effects | maximum plasma concentrations ([5]; common daily dose 1200 mg/day): approximately 70 µM | Remaining Activities (% of Control, n = 3) (CYP3A4(M); test substance 0.1 μM): 97.6 ± 3.8 % of Control | Remaining Activities (% of Control, n = 3) (CYP3A4(M); test substance 0.3 μM): 99.1 ± 3.1 % of Control | Remaining Activities (% of Control, n = 3) (CYP3A4(M); test substance 1 μM): 91.2 ± 10.6 % of Control | Remaining Activities (% of Control, n = 3) (CYP3A4(M); test substance 3 μM): 87.9 ± 27.9 % of Control | Remaining Activities (% of Control, n = 3) (CYP3A4(M); test substance 10 μM): 101.4 ± 4.9 % of Control | Remaining Activities (% of Control, n = 3) (CYP3A4(M); test substance 30 μM): 106.6 ± 5 % of Control | Remaining Activities (% of Control, n = 3) (CYP3A4(M); test substance 100 μM): 113.6 ± 8.4 % of Control | Remaining Activities (% of Control, n = 3) (CYP3A4(M); test substance 200 μM): 114.6 ± 2.8 % of Control
